Data as given in BindingDB's records for patent US10188615 (ACUCELA INC., 2019).

target: T1, Retinoid isomerohydrolase (Human, UniProt Q16518); assay: In Vitro Isomerase Inhibition Assay
T1 sequence (Q16518 whole entry): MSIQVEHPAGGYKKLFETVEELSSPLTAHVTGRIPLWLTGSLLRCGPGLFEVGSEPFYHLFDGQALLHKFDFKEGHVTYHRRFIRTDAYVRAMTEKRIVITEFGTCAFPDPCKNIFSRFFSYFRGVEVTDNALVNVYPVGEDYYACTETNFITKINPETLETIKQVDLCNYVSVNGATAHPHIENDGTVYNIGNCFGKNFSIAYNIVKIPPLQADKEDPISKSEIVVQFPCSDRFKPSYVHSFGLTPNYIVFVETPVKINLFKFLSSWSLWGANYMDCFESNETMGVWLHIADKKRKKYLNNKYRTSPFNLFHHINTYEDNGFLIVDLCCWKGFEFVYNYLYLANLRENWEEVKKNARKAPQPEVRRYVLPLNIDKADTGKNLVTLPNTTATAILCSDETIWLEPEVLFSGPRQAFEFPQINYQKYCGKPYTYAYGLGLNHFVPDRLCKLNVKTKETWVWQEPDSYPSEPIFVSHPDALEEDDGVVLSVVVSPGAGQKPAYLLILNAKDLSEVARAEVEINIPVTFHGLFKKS

| SMILES | IC50 |
| --- | --- |
| NCCC(O)c1cc(OCC2CCCCC2)ccc1Br (stereo not given) [US10188615, Example 146] | in the range around 5500 nM |
| COCCOc1cccc(C(O)CCN)c1 (stereo not given) [US10188615, Example 86] | in the range around 550 nM |
| NCCSc1cccc(OCC2CCCCC2)c1 [US10188615, Example 123] | in the range around 55 nM |
| NCCC(O)c1cccc(OCCCCOCc2ccccc2)c1 (stereo not given) [US10188615, Example 114] | in the range around 55 nM |
| CC(C)C(O)COc1cccc(CCCN)c1 (stereo not given) [US10188615, Example 152] | in the range around 550 nM |
| NCCS(=O)(=O)c1cccc(OCC2CCCCC2)c1 [US10188615, Example 125] | in the range around 550 nM |
| COCCOCCOCC(=O)NCCC(O)c1cccc(OCC2CCCCC2)c1 (stereo not given) [US10188615, Example 77] | in the range around 5500 nM |
| CCCC(CCC)COc1cccc(C[C@@H](O)CN)c1 [US10188615, Example 68] | in the range around 55 nM |
| CCCC(O)COc1cccc(C(O)CCN)c1 (stereo not given) [US10188615, Example 163] | in the range around 55 nM |
| NCCCc1cccc(OCC2CCC2)c1 [US10188615, Example 61] | in the range around 550 nM |
| NCCCc1cccc(OCC(O)c2ccccc2)c1 (stereo not given) [US10188615, Example 150] | in the range around 550 nM |
| NCC#Cc1cccc(OCC2CCCCC2)c1 [US10188615, Example 197] | in the range around 55 nM |
| COc1ccccc1COc1cccc(CCCN)c1 [US10188615, Example 38] | in the range around 550 nM |
| N=C(N)NCc1cccc(OCC2CCCCC2)c1 [US10188615, Example 190] | in the range around 5500 nM |
| COCCCOc1cccc(OCCN)c1 [US10188615, Example 85] | in the range around 550 nM |
| NCCC(O)c1cccc(OCC2CC2)c1 (stereo not given) [US10188615, Example 71] | in the range around 55 nM |
| CC[C@H](CN)[C@@H](O)c1cccc(OCC2CCCCC2)c1 [US10188615, Example 49] | in the range around 55 nM |
| Cc1ccc(OCC2CCCCC2)cc1OCCN [US10188615, Example 160] | in the range around 5500 nM |
| NCCCc1cccc(OCC2(O)CCCCCCC2)c1 [US10188615, Example 135] | in the range around 550 nM |
| NCCOc1cccc(OCCCCCO)c1 [US10188615, Example 143] | in the range around 550 nM |
| NCCC#Cc1cccc(OCC2CCCCC2)c1 [US10188615, Example 196] | in the range around 5500 nM |
| NCCOc1cccc(OCCCCCOCc2ccccc2)c1 [US10188615, Example 134] | in the range around 5500 nM |
| NCCC(O)c1cccc(OCCCOCc2ccccc2)c1 (stereo not given) [US10188615, Example 131] | in the range around 55 nM |
| CCCC(CCC)COc1cccc(C[C@H](O)CN)c1 [US10188615, Example 67] | in the range around 55 nM |
| NCCCc1cccc(OCc2nccs2)c1 [US10188615, Example 122] | in the range around 550 nM |

| SMILES | IC50 |
| --- | --- |
| CCCC(O)COc1cccc(CCCN)c1 (stereo not given) [US10188615, Example 167] | in the range around 550 nM |
| CCCCCOc1cccc(CCCN)c1 [US10188615, Example 44] | in the range around 550 nM |
| NCCC(O)c1cccc(OCCCCO)c1 (stereo not given) [US10188615, Example 165] | in the range around 550 nM |
| CC(C)CCOc1cccc(CCCN)c1 [US10188615, Example 33] | in the range around 550 nM |
| NCCC(O)c1cccc(OCCCCCOCc2ccccc2)c1 (stereo not given) [US10188615, Example 115] | in the range around 55 nM |
| CC(=O)O[C@@H]1CCCC[C@H]1COc1cccc([C@H](O)CCN)c1 [US10188615, Example 173] | in the range around 55 nM |
| CN(CCN)c1cccc(OCC2CCCCC2)c1 [US10188615, Example 128] | in the range around 5500 nM |
| NCCNc1cccc(OCC2CCCCC2)c1 [US10188615, Example 129] | in the range around 550 nM |
| CNCCC(=O)c1cccc(OCC2CCCCC2)c1 [US10188615, Example 181] | in the range around 550 nM |
| COCCOc1cccc(CCCN)c1 [US10188615, Example 40] | in the range around 5500 nM |
| NCCCc1cccc(OCCc2ccccc2)c1 [US10188615, Example 70] | in the range around 550 nM |
| CC(C)C(O)COc1cccc(C(O)CCN)c1 (stereo not given) [US10188615, Example 158] | in the range around 55 nM |
| CNCCC(O)c1cccc(OCC2CCCCC2)c1 (stereo not given) [US10188615, Example 187] | in the range around 55 nM |
| N=C(N)CC(O)c1cccc(OCC2CCCCC2)c1 (stereo not given) [US10188615, Example 130] | in the range around 55 nM |
| CC(=O)O[C@@H]1CCCC[C@@H]1COc1cccc([C@H](O)CCN)c1 [US10188615, Example 174] | in the range around 55 nM |
| NCCC(O)c1cccc(OCCCC(N)=O)c1 (stereo not given) [US10188615, Example 149] | in the range around 5500 nM |
| NC/C=C/c1cc(F)cc(OCC2CCCCC2)c1 [US10188615, Example 198] | in the range around 550 nM |
| C[C@@H](CN)[C@H](O)c1cccc(OCC2CCCCC2)c1 [US10188615, Example 73] | in the range around 55 nM |
| NCC[S+]([O-])c1cccc(OCC2CCCCC2)c1 (stereo not given) [US10188615, Example 124] | in the range around 550 nM |
| NCCC(O)c1cccc(OCCO)c1 (stereo not given) [US10188615, Example 109] | in the range around 5500 nM |
| Cc1c(OCCN)cccc1OCC1CCCCC1 [US10188615, Example 164] | in the range around 550 nM |
| NCCC(CO)c1cccc(OCC2CCCCC2)c1 (stereo not given) [US10188615, Example 80] | in the range around 550 nM |
| C[C@H](CN)[C@H](O)c1cccc(OCC2CCCCC2)c1 [US10188615, Example 76] | in the range around 5500 nM |
| NCCOc1cccc(OCCCC(N)=O)c1 [US10188615, Example 144] | in the range around 5500 nM |
| NCCC(O)(CO)c1cccc(OCC2CCCCC2)c1 (stereo not given) [US10188615, Example 79] | in the range around 5500 nM |

| SMILES | IC50 |
| --- | --- |
| NCCC(O)c1cccc(OCCCCCO)c1 (stereo not given) [US10188615, Example 166] | in the range around 55 nM |
| CCCCCOc1cccc(OCCN)c1 [US10188615, Example 90] | in the range around 55 nM |
| NCCOc1cccc(OCCCOCc2ccccc2)c1 [US10188615, Example 94] | in the range around 550 nM |
| NCCCCc1cccc(OCC2CCCCC2)c1 [US10188615, Example 184] | in the range around 5500 nM |
| NCCC(O)c1cccc(OCc2c(Cl)cccc2Cl)c1 (stereo not given) [US10188615, Example 105] | in the range around 55 nM |
| NCCOc1cccc(OCC(O)c2ccccc2)c1 (stereo not given) [US10188615, Example 145] | in the range around 5500 nM |
| NCCC(O)c1cccc(OCCc2ccccc2)c1 (stereo not given) [US10188615, Example 54] | in the range around 55 nM |
| NCCOc1cccc(OCCc2ccccc2)c1 [US10188615, Example 47] | in the range around 55 nM |
| CC(C)C(O)COc1cccc(OCCN)c1 (stereo not given) [US10188615, Example 153] | in the range around 550 nM |
| NCCOc1cccc(OCCCCOCc2ccccc2)c1 [US10188615, Example 100] | in the range around 5500 nM |
| CNC(=O)CCCOc1cccc(OCCN)c1 [US10188615, Example 133] | in the range around 5500 nM |
| NCCOc1cccc(OCc2ccccc2)c1 [US10188615, Example 8] | in the range around 550 nM |
| NCCCc1cccc(OCc2ccccc2)c1 [US10188615, Example 59] | in the range around 550 nM |
| NCCCc1cccc(OCCCCOCc2ccccc2)c1 [US10188615, Example 42] | in the range around 5500 nM |
| NCCCc1cc(F)cc(OCC2CCCCC2)c1 [US10188615, Example 168] | in the range around 550 nM |
| NCCCc1cccc(OCCCc2ccccc2)c1 [US10188615, Example 96] | in the range around 550 nM |
| COc1ccccc1COc1cccc(OCCN)c1 [US10188615, Example 101] | in the range around 550 nM |
| NCCOc1cccc(OCC2CC2)c1 [US10188615, Example 57] | in the range around 550 nM |
| Cc1cccc(C)c1COc1cccc(CCCN)c1 [US10188615, Example 137] | in the range around 5500 nM |
| CCC(CC)COc1cccc(C[C@H](O)CN)c1 [US10188615, Example 66] | in the range around 55 nM |
| NCCOc1cccc(OCCCCO)c1 [US10188615, Example 156] | in the range around 550 nM |
| CCCC(O)COc1cccc(OCCN)c1 (stereo not given) [US10188615, Example 159] | in the range around 5500 nM |
| NCCCc1cccc(OCc2c(Cl)cccc2Cl)c1 [US10188615, Example 91] | in the range around 550 nM |
| NCCC(O)c1cccc(OCC2CCCCO2)c1 (stereo not given) [US10188615, Example 83] | in the range around 55 nM |
| CCC(CC)COc1cccc(O[C@H](C)CN)c1 [US10188615, Example 50] | in the range around 550 nM |
